The text below walks through data of PubChem BioAssay (NCI).

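Method: 48-hour compound exposure of cells in 96-well plates, five concentrations, linear interpolation of endpoints. GI50 = concentration required for 50% inhibition of growth. TGI is the concentration that stops growth completely.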

The test system of the first assay is HT29 colon. In words: growth of human tumour cells (NCI), 48 h.
Regarding `NC(=O)c1sc(-n2cnc3ccccc32)cc1OCc1ccccc1Br`, the GI50 is 1.06 µM and the TGI is > 25 µM.
As to `CN(C)C(=N)c1ccccc1`, the TGI is > 100 µM.
Take `C#Cc1ccc(-n2c(/C=C/c3ccc(C(F)(F)F)cc3)nc3ncccc3c2=O)cc1`: the GI50 is 2.03 µM and the TGI was found to be 3.95 µM.
Take `Cc1cc(C)nc(NS(=O)(=O)c2ccc(NC(=O)c3ccc(Cl)c4c(Nc5ccc(S(=O)(=O)Nc6nc(C)cc(C)n6)cc5)c5ccccc5nc34)cc2)n1`: the TGI was > 100 µM.
For `CCCCCN(CCCCC)CCCNc1c2c(nc3ccc(Cl)cc13)CCCC2`, the GI50 is 0.501 µM and the TGI amounted to 7.01 µM.

The subject of a further assay is K-562 leukemia. In words: growth of human tumour cells (NCI), 48 h.
Take `CC1(C)CCc2c(c3c(c4c(=O)c(O)c(-c5ccc(O)cc5)oc24)OC(C)(C)CC3)O1`: the GI50 was > 100 µM and the TGI was > 100 µM.
As to `CC(C)=CC(=O)C1c2cccc(O)c2C(=O)c2c(O)cc(C)cc21` (centres undefined), the TGI is > 100 µM.
For the compound `O=C(O)CCc1coc2ccc(O)cc12`, the TGI is > 100 µM.
In the case of `O=C(Nc1ccccc1)NS(=O)(=O)c1ccc(-n2nc3c(c2-c2cccs2)Cc2ccccc2-3)cc1`, the GI50 is 14 µM and the TGI came to 76.2 µM.
Take `CCCCCN(CCCCC)CC(O)c1cc(C)c2ccc3cc(C(C)C)ccc3c2c1` (centres undefined): the GI50 was 2.17 µM and the TGI worked out at 4.46 µM.
For `COC(=O)CC1CCN(C#N)CC1CC[N+](=O)[O-]` (centres undefined), the TGI was > 100 µM.
Turning to `COc1ccc(-c2nc3sccn3c2/C(N)=N/C(=N)N)cc1OC`, the GI50 is 27.6 µM and the TGI is > 100 µM.
Turning to `CC1=C(C(=O)Nc2ccc(Cl)c(Cl)c2)C(c2cccc(Oc3ccccc3)c2)NC(=S)N1` (centres undefined), the GI50 is 12.4 µM and the TGI was > 50 µM.
With `O=C(N/C(=C\c1ccc(/C=C(\NC(=O)c2ccccc2)c2nc3cc([N+](=O)[O-])ccc3[nH]2)cc1)c1nc2cc([N+](=O)[O-])ccc2[nH]1)c1ccccc1`, the TGI is > 100 µM.
On the same count and under the same terms, in the case of `COc1cc2c(cc1OC)-c1c3cc(O)ccc3nn[n+]1CC2` it was > 100 µM.
Regarding `Cc1ccc(NC2=C(Cl)C(=O)N(Cc3ccccc3)C2=O)cc1O`, the GI50 was 17.8 µM and the TGI was > 100 µM.
As for `CCN(CCO)CC1CCCC2CCCCC21` (centres undefined), the TGI was > 100 µM.
`N#CC(c1ccc(Cl)cc1)c1cccc(C(C#N)c2ccc(Cl)cc2)n1` (centres undefined): the TGI is > 100 µM.
As to `CCCCOC(=O)C1OC(O[C@H]2CCC3(C)C(CCC4(C)C3CC=C3C5CC(C)(C)CCC5(C(=O)O)CC[C@]34C)C2(C)C)C(OC2OC(CO)C(O)C(O)C2O)C(OC2OC(CO)C(O)C(O)C2O)C1O` (some centres undefined), the GI50 was 23.2 µM and the TGI is > 100 µM.
On to `COc1cc(Cc2cnc(/N=C3\C(=O)N(CN4CCN(c5c(F)cc6c(=O)c(C(=O)O)cn(C7CC7)c6c5OC)CC4C)c4ccc(F)cc43)nc2N)cc(OC)c1OC` (centres undefined), for which the GI50 is 6.41 µM and the TGI was > 100 µM.
In the case of `N#CC1C(C#N)C2(c3ccccc3)C(c3ccccc3)=NN(c3ccccc3)CC12` (centres undefined), the TGI is > 100 µM.
In the case of `NC(=O)c1sc(-n2cnc3ccccc32)cc1OCc1ccccc1Br`, the GI50 was 6.71 µM and the TGI was > 25 µM.
For the compound `C#Cc1ccc(-n2c(/C=C/c3ccc(C(F)(F)F)cc3)nc3ncccc3c2=O)cc1`, the GI50 was 2.96 µM and the TGI was found to be 8.71 µM.
Compound `Cc1cc(C)nc(NS(=O)(=O)c2ccc(NC(=O)c3ccc(Cl)c4c(Nc5ccc(S(=O)(=O)Nc6nc(C)cc(C)n6)cc5)c5ccccc5nc34)cc2)n1` showed a TGI of 99 µM.

The next assay relates to MALME-3M melanoma. In words: growth of human tumour cells (NCI), 48 h.
With `CC1(C)CCc2c(c3c(c4c(=O)c(O)c(-c5ccc(O)cc5)oc24)OC(C)(C)CC3)O1`, the GI50 is > 100 µM and the TGI is > 100 µM.
Take `CC(C)=CC(=O)C1c2cccc(O)c2C(=O)c2c(O)cc(C)cc21` (centres undefined): the TGI was found to be 7.93 µM.
As to `CCCCCN(CCCCC)CC(O)c1cc(C)c2ccc3cc(C(C)C)ccc3c2c1` (centres undefined), the GI50 is 1.92 µM and the TGI turned out to be 3.85 µM.
Turning to `COC(=O)CC1CCN(C#N)CC1CC[N+](=O)[O-]` (centres undefined), the TGI was > 100 µM.
As for `COc1ccc(-c2nc3sccn3c2/C(N)=N/C(=N)N)cc1OC`, the GI50 was 13.3 µM and the TGI is 32.9 µM.
Take `O=C(N/C(=C\c1ccc(/C=C(\NC(=O)c2ccccc2)c2nc3cc([N+](=O)[O-])ccc3[nH]2)cc1)c1nc2cc([N+](=O)[O-])ccc2[nH]1)c1ccccc1`: the TGI is > 100 µM.
Regarding `Cc1ccc(NC2=C(Cl)C(=O)N(Cc3ccccc3)C2=O)cc1O`, the GI50 was 24.1 µM and the TGI is > 100 µM.
As to `CCN(CCO)CC1CCCC2CCCCC21` (centres undefined), the TGI was > 100 µM.
As to `N#CC(c1ccc(Cl)cc1)c1cccc(C(C#N)c2ccc(Cl)cc2)n1` (centres undefined), the TGI was > 100 µM.
For the compound `N#CC1C(C#N)C2(c3ccccc3)C(c3ccccc3)=NN(c3ccccc3)CC12` (centres undefined), the TGI is > 100 µM.
Same read-out and setting: with `CN(C)C(=N)c1ccccc1` the figure was > 100 µM.
`C#Cc1ccc(-n2c(/C=C/c3ccc(C(F)(F)F)cc3)nc3ncccc3c2=O)cc1`: the GI50 is 1.64 µM and the TGI stood at 3.57 µM.
`Cc1cc(C)nc(NS(=O)(=O)c2ccc(NC(=O)c3ccc(Cl)c4c(Nc5ccc(S(=O)(=O)Nc6nc(C)cc(C)n6)cc5)c5ccccc5nc34)cc2)n1` came in with a TGI of 53.5 µM.
As for `CCCCCN(CCCCC)CCCNc1c2c(nc3ccc(Cl)cc13)CCCC2`, the GI50 is 2.54 µM and the TGI turned out to be 6.01 µM.

Another assay relates to SF-295 CNS. In words: growth of human tumour cells (NCI), 48 h.
`CC1(C)CCc2c(c3c(c4c(=O)c(O)c(-c5ccc(O)cc5)oc24)OC(C)(C)CC3)O1`: the GI50 is 34.3 µM and the TGI is > 100 µM.
`CC(C)=CC(=O)C1c2cccc(O)c2C(=O)c2c(O)cc(C)cc21` (centres undefined) had a TGI of 3.39 µM.
The same measure, in the same setting: in the case of `O=C(O)CCc1coc2ccc(O)cc12` it was > 100 µM.
In the case of `O=C(Nc1ccccc1)NS(=O)(=O)c1ccc(-n2nc3c(c2-c2cccs2)Cc2ccccc2-3)cc1`, the GI50 is 21.9 µM and the TGI was found to be 73.5 µM.
As to `CCCCCN(CCCCC)CC(O)c1cc(C)c2ccc3cc(C(C)C)ccc3c2c1` (centres undefined), the GI50 is 1.87 µM and the TGI turned out to be 3.46 µM.
As to `COc1ccc(-c2nc3sccn3c2/C(N)=N/C(=N)N)cc1OC`, the GI50 was 30.5 µM and the TGI worked out at 87.1 µM.
The like results for `CC1=C(C(=O)Nc2ccc(Cl)c(Cl)c2)C(c2cccc(Oc3ccccc3)c2)NC(=S)N1` (centres undefined) were, in that order, 8.15 µM and 15.3 µM.
